Measured values taken from the supplement of paper PMC10307832.

Experiments:
Experiment in all cases: relative viability (nuclei count vs DMSO), 5 days (fraction); higher = more cells survive
[1] = compound: CC1=NC=CC(=C1)C2=CC=C(C=C2)CC(=O)NC3=CC=C(C=C3)C4=CN=CC=C4 [Wnt-C59] + Nc1ncn([C@H]2C[C@H](O)[C@@H](CO)O2)c(=O)n1 [Decitabine] (partner 2 µM)
How it was run: (§1)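 Relative viability was taken as the ratio of nuclei in treated wells to nuclei in vehicle wells. Lung cancer cell lines in 1536-well plates received compounds by pin tool one day after seeding, either one drug alone or a fixed anchor-drug dose plus five library-drug doses (not always all listed) in √10 steps. Nuclei were counted on 4× images after 5 days of treatment, and values are medians of duplicate plates.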

[2] = compound: CC1=NC=CC(=C1)C2=CC=C(C=C2)CC(=O)NC3=CC=C(C=C3)C4=CN=CC=C4 [Wnt-C59] + C[C@]1(O)C[C@@H](c2nc(-c3ccc4ccc(-c5ccccc5)nc4c3)c3c(N)nccn32)C1 [Linsitinib] (partner 1 µM)
How it was run: as §1

[3] = compound: CC1=NC=CC(=C1)C2=CC=C(C=C2)CC(=O)NC3=CC=C(C=C3)C4=CN=CC=C4 [Wnt-C59] + COc1cc2c(Oc3ccc(NC(=O)C4(C(=O)Nc5ccc(F)cc5)CC4)cc3F)ccnc2cc1OCCCN1CCOCC1 [Foretinib] (partner 0.25 µM)
How it was run: as §1

[4] = compound: CS(=O)(=O)CCNCc1ccc(-c2ccc3ncnc(Nc4ccc(OCc5cccc(F)c5)c(Cl)c4)c3c2)o1 [Lapatinib] + CS(=O)(=O)N1CCN(Cc2cc3nc(-c4cccc5[nH]ncc45)nc(N4CCOCC4)c3s2)CC1 [Pictilisib] (partner 1 µM)
How it was run: as §1

Cell Line | relative viability ([1]; first compound 0.001 µM) | relative viability ([1]; first compound 0.01 µM) | relative viability ([1]; first compound 0.03162 µM) | relative viability ([1]; first compound 0.1 µM) | relative viability ([2]; first compound 0.001 µM) | relative viability ([2]; first compound 0.01 µM) | relative viability ([2]; first compound 0.03162 µM) | relative viability ([2]; first compound 0.1 µM) | relative viability ([3]; first compound 0.001 µM) | relative viability ([3]; first compound 0.01 µM) | relative viability ([3]; first compound 0.03162 µM) | relative viability ([3]; first compound 0.1 µM) | relative viability ([4]; first compound 0.06325 µM) | relative viability ([4]; first compound 0.2 µM) | relative viability ([4]; first compound 0.6325 µM) | relative viability ([4]; first compound 2 µM) | relative viability ([4]; first compound 0.02 µM)
SK-LU-1 | 0.657 | 0.675 | 0.694 | 0.657 | 1.01 | 1.12 | 1.07 | 1.03 | 0.791 | 0.796 | 0.87 | 0.792 | 0.504 | 0.634 | 0.754 | 0.57 | –
HCC-366 | 0.317 | 0.427 | 0.342 | 0.387 | 0.697 | 0.582 | 0.717 | 0.595 | 0.896 | 0.975 | 0.922 | 0.89 | 0.0868 | 0.131 | 0.135 | 0.0768 | 0.133
EPLC-272H | 0.443 | 0.369 | 0.472 | 0.364 | 1.29 | 1.23 | 1.08 | 1.15 | 0.722 | 0.667 | 0.831 | 0.697 | 0.207 | 0.386 | 0.381 | 0.293 | –
NCI-H322M | 0.729 | 0.655 | 0.666 | 0.63 | 1.07 | 0.775 | 0.758 | 0.685 | 0.879 | 0.802 | 0.896 | 0.68 | 0.31 | 0.483 | 0.504 | 0.404 | 0.555
NCI-H1944 | 0.501 | 0.459 | 0.51 | 0.43 | 1.13 | 1.11 | 1.26 | 1.12 | 1.02 | 0.701 | 0.841 | 0.867 | – | 0.348 | 0.343 | 0.318 | –
NCI-H1755 | 0.696 | 0.728 | 0.725 | 0.691 | 0.979 | 0.954 | 0.983 | 0.984 | 0.884 | 0.895 | 0.55 | 0.866 | 0.363 | 0.433 | 0.437 | 0.371 | 0.244
LXF-289 | 0.396 | 0.369 | 0.446 | 0.386 | 0.99 | 0.933 | 1 | 0.918 | 0.991 | 0.98 | 1.01 | 0.979 | 0.717 | 0.744 | 0.784 | 0.737 | 0.762
LCLC-97TM1 | 0.262 | 0.266 | 0.227 | 0.238 | 0.182 | 0.171 | 0.176 | 0.156 | 1.03 | 0.949 | 1.03 | 0.896 | – | 0.223 | 0.227 | 0.203 | –
NCI-H2347 | 0.629 | 0.628 | 0.643 | 0.602 | 0.987 | 0.889 | 0.98 | 0.987 | 0.625 | 1.13 | 0.985 | 1.08 | 0.673 | 0.663 | 0.646 | 0.873 | 0.598
PC-3 [JPC-3] | 0.853 | 0.847 | 0.849 | 0.841 | 0.964 | 0.942 | 1.01 | 0.961 | 1.05 | 1.12 | 1.14 | 1.05 | 0.687 | 0.621 | 0.769 | 0.512 | –
H3255 | 0.62 | 0.601 | 0.668 | 0.515 | 1.01 | 0.962 | 1.02 | 0.866 | 0.944 | 0.892 | 1.12 | 0.951 | 0.403 | 0.397 | 0.284 | 0.155 | 0.452
HOP-62 | 0.19 | 0.238 | 0.227 | 0.231 | 1.09 | 1.1 | 1.14 | 0.95 | 1.1 | 1.06 | 1.07 | 1.19 | 0.66 | 0.76 | 0.816 | 0.672 | –
LK-2 | 0.319 | 0.329 | 0.319 | 0.323 | 0.529 | 0.708 | 0.563 | 0.582 | 1.28 | 1.02 | 1.46 | 1.25 | – | 0.424 | 0.615 | 0.531 | –
NCI-H441 | 0.232 | 0.226 | 0.246 | 0.166 | 0.496 | 0.407 | 0.667 | 0.575 | 0.977 | 1.05 | 1.01 | 1.04 | 0.417 | 0.431 | 0.422 | 0.453 | 0.332
PC-14 | 0.246 | 0.283 | 0.223 | 0.243 | 0.936 | 1.04 | 0.958 | 0.944 | 1.03 | 0.982 | 0.897 | 0.973 | 0.641 | 0.768 | 0.804 | 0.121 | 0.543
EMC-BAC-2 | 0.932 | 0.914 | 0.89 | 0.89 | 0.736 | 0.642 | 0.741 | 0.709 | 0.946 | 0.964 | 0.967 | 0.561 | 0.433 | 0.504 | 0.581 | 0.493 | 0.355

Cell Line | relative viability ([1]; first compound 0.001 µM) | relative viability ([1]; first compound 0.01 µM) | relative viability ([1]; first compound 0.03162 µM) | relative viability ([1]; first compound 0.1 µM) | relative viability ([2]; first compound 0.001 µM) | relative viability ([2]; first compound 0.01 µM) | relative viability ([2]; first compound 0.03162 µM) | relative viability ([2]; first compound 0.1 µM) | relative viability ([3]; first compound 0.001 µM) | relative viability ([3]; first compound 0.01 µM) | relative viability ([3]; first compound 0.03162 µM) | relative viability ([3]; first compound 0.1 µM) | relative viability ([4]; first compound 0.06325 µM) | relative viability ([4]; first compound 0.2 µM) | relative viability ([4]; first compound 0.6325 µM) | relative viability ([4]; first compound 2 µM) | relative viability ([4]; first compound 0.02 µM)
NCI-H358 | 0.223 | 0.207 | 0.295 | 0.213 | 0.83 | 0.641 | 0.923 | 0.682 | 0.759 | 0.648 | 1.04 | 0.678 | – | 0.301 | 0.304 | 0.309 | 0.334
NCI-H2087 | 0.245 | 0.28 | 0.281 | 0.336 | 1.04 | 0.956 | 0.958 | 0.858 | 1.1 | 0.979 | 0.947 | 1.01 | 0.737 | 1.03 | 0.963 | 0.802 | 0.472
NCI-H1355 | 0.361 | 0.354 | 0.349 | 0.337 | 0.875 | 0.779 | 0.881 | 0.673 | 0.949 | 0.922 | 1.01 | 0.876 | 0.419 | 0.496 | 0.499 | 0.285 | –
SK-MES-1 | 0.386 | 0.403 | 0.366 | 0.355 | 1.11 | 1.1 | 1.02 | 1.08 | 0.974 | 0.81 | 0.905 | 0.918 | 0.3 | 0.235 | 0.257 | 0.199 | 0.36
NCI-H1793 | 0.458 | 0.461 | 0.615 | 0.521 | 0.926 | 0.729 | 0.875 | 0.865 | 0.69 | – | 0.678 | 0.614 | – | – | 0.368 | 0.318 | –
COR-L23 | 0.489 | 0.47 | 0.493 | 0.525 | 1 | 0.893 | 1.08 | 0.837 | 0.993 | 0.916 | 0.853 | 0.913 | 0.583 | 0.984 | 0.92 | 0.733 | 0.681
HCC-15 | 0.621 | 0.607 | 0.661 | 0.606 | 0.922 | 0.96 | 0.856 | 0.928 | 1.09 | 1.09 | 1.04 | 0.992 | 0.734 | 0.767 | 0.725 | 0.638 | –
NCI-H2023 | 0.227 | 0.244 | 0.251 | 0.221 | 0.736 | 0.58 | 0.648 | 0.631 | 1.1 | 0.788 | 1.01 | 0.667 | 0.15 | 0.262 | 0.276 | 0.199 | 0.164
ABC-1 | 1.08 | 1.14 | 1.05 | 0.938 | 0.909 | 0.759 | 0.774 | 0.702 | 0.982 | 1.16 | 1.07 | 0.97 | 0.655 | 1.09 | 0.93 | 0.696 | –
HARA | 0.604 | 0.455 | 0.543 | 0.587 | 1.02 | 0.865 | 1.16 | 0.899 | 0.823 | 0.765 | 1.01 | 0.841 | 0.261 | 0.527 | 0.33 | 0.288 | 0.418
EKVX | 0.313 | – | 0.417 | 0.374 | 1.07 | 0.846 | 1.01 | 0.757 | 0.763 | 0.725 | 0.833 | 0.714 | 0.322 | 0.376 | 0.345 | 0.177 | 0.41
HCC-78 | 0.695 | 0.754 | 0.734 | 0.641 | 0.507 | 0.498 | 0.576 | 0.584 | 0.496 | 0.511 | 0.518 | 0.515 | 0.265 | 0.196 | 0.21 | 0.208 | –
NCI-H1395 | 0.743 | 0.76 | 0.764 | 0.704 | 0.972 | 1.06 | 1.09 | 1.03 | 0.99 | 1.01 | 0.984 | 1 | 0.66 | 0.527 | 0.696 | 0.583 | –
BEN | 0.667 | 0.741 | 0.807 | 0.782 | 0.915 | 0.948 | 1.02 | 0.88 | 0.877 | 0.615 | 0.786 | 0.747 | 0.577 | 0.53 | 0.519 | 0.505 | 0.412
LCLC-103H | 0.729 | 0.758 | 0.785 | 0.698 | 1.08 | 1.08 | 0.986 | 1.09 | 0.752 | 0.891 | 0.889 | 0.641 | 0.555 | 0.695 | 0.636 | 0.494 | –
NCI-H1734 | 0.501 | 0.452 | 0.558 | 0.523 | 0.858 | 0.779 | 0.916 | 0.911 | 0.808 | 0.839 | 0.922 | 0.962 | 0.354 | 0.451 | 0.47 | 0.534 | –
